SMILES strings stand for the structures.

The test system of this assay is primary cultures of adult porcine RPE cells. The assay is described as follows: RPE cellular model of phototoxicity induced by A2E treatment followed by blue radiation illumination; cell survival. Type of assay: cell-based. The note with it: for protection, percentage of survival compared to the control without A2E: 10 μM; for protective effect (cell survival vs control without A2E): concentrations of 0.1 and 1 μM, 48 h treatment, last 24 h with A2E, then blue light. How it is done: Given the very probable role of this mechanism in the development of AMD, the inventors used an in vitro cellular model of induced phototoxicity by the association of a treatment with A2E and illumination by blue light on RPE primary cell cultures wherein cell survival was measured. This model was developed by the Institute of Vision and allows for screening molecules aimed to discover new candidates for the treatment of dry AMD.
To test the photoprotective effect of the test substances, the inventors used a cellular model of induced phototoxicity by treatment with A2E followed by illumination with blue radiation. This model was produced from primary cultures of adult porcine RPE cells. Cell survival was determined by the ratio between the number of living cells and the total number of cells (alive+dead, respectively quantified using specific staining). Image acquisition was performed using a fluorescence microscope controlled by Metamorph software and quantifications were made by processing images acquired by a program dedicated quantification. The experiments were performed in 96-well microplates in quadruplicate and the experiment was repeated at least four times. Cells were treated for 48 hours with these compounds, the last 24 hours in the presence of A2E before induction of phototoxicity. Three concentrations (0.1, 1 and 10 μM) were tested for each compound. Some compounds were further tested at 20 μM to achieve a range of concentrations.

Take `Oc1cc(O)c2cc(O)c(-c3ccc(O)c(O)c3)[o+]c2c1` [Cyanidin]: the “protection, percentage of survival compared to the control without A2E” value is recorded as about 87%. With `O=c1oc2c(O)c(O)cc3c(=O)oc4c(O)c(O)cc1c4c23` [Ellagic acid], the “protection, percentage of survival compared to the control without A2E” value is about 68% and the “protective effect (cell survival vs control without A2E)” value is “did not show a protective effect”. The “protection against phototoxicity (in words)” value (20 μM) is listed as “protection similar to that measured at 10 μM”. With `CC1=C[C@H](O)CC(C)(C)[C@H]1/C=C/C(C)=C/C=C/C(C)=C/C=C/C=C(C)/C=C/C=C(C)/C=C/C1=C(C)C[C@@H](O)CC1(C)C` [Lutein, reference compound], the “protective effect (cell survival vs control without A2E)” value is “did not show a protective effect”. The same measure, in the same setting: the value for `O=c1cc(-c2ccc(O)c(O)c2)oc2c([C@@H]3O[C@H](CO)[C@@H](O)[C@H](O)[C@H]3O)c(O)cc(O)c12` [Orientin] was “did not show a protective effect”; that for `CC1=C(/C=C/C(C)=C/C=C/C(C)=C/C=C/C=C(C)/C=C/C=C(C)/C=C/C2=C(C)C[C@@H](O)CC2(C)C)C(C)(C)C[C@H](O)C1` [Zeaxanthin, reference compound] was “did not show a protective effect”; that for `CC(/C=C/C=C(\C)C(=O)O)=C\C=C\C=C(C)\C=C\C=C(/C)C(=O)O` [Crocetin] was “did not show a protective effect”. The same measure, in the same setting: the value for `Oc1ccc(C=Cc2cc(O)cc(O)c2)cc1` [Resveratrol, reference compound] was “did not show a protective effect”; that for `O=C1C[C@@H](c2ccc(O)cc2)Oc2cc(O)cc(O)c21` [Naringenin] was “did not show a protective effect”.

Values taken from patent US20170354638A1, “BIXA ORELLANA COMPOSITION FOR THE TREATMENT MACULAR DEGENERATION” (BIOPHYTIS, priority 2011, published 2017).
